{
  "source": "patent US20240041042A1",
  "about": "“1-(PYRIDYL)-5-AZINYLPYRAZOLE DERIVATIVES, AND THEIR USE FOR CONTROL OF UNDESIRED PLANT GROWTH” (Bayer Aktiengesellschaft, priority 2020, published 2024)",
  "format_in_all_cases": "in vivo",
  "key": {"[1]": {"tested_on": "Triticum aestivum (TRZAS)", "conditions": "crop plant compatibility, effect vs untreated controls", "in_short": "(§1)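 Percent effect on the crop was judged by eye against untreated controls, where 0% means like control and 100% means dead plants. Plants had been sprayed post-emergence at the one-leaf stage and then kept under optimum greenhouse conditions for about 3 weeks.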"}, "Glycine max (GLXMA)": {"tested_on": "Glycine max (GLXMA)", "conditions": "20 g/ha; crop plant compatibility, effect vs untreated controls", "in_short": "(§2)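 Scoring: visual, % of untreated control, about 3 weeks after a pre-emergence application to the soil surface. Application used WP or EC formulations diluted in water with 0.5% additive at 600 l/ha; dosage levels are marked by suffixes a, b and c.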"}, "[2]": {"tested_on": "Triticum aestivum (TRZAS)", "conditions": "crop plant compatibility; for Pre-emergence action against TRZAS: 20 g/ha, effect vs untreated controls", "in_short": "as §2"}, "Zea mays (ZEAMX)": {"tested_on": "Zea mays (ZEAMX)", "conditions": "for Post-emergence action against ZEAMX in % (crop plant compatibility): 20 g/ha, effect in comparison to untreated controls; for Post-emergence action against ZEAMX in %: crop plant compatibility, 80 g/ha, effect vs untreated controls", "in_short": "as §1"}, "Brassica napus (BRSNW)": {"tested_on": "Brassica napus (BRSNW)", "conditions": "20 g/ha, crop plant compatibility, in comparison to untreated controls", "in_short": "as §2"}},
  "note": "Where two headings read alike, the source gives them in different places.",
  "data": [
    {"smiles": "COC(=O)CNC(=O)[C@@H](C)Oc1nn(-c2ccccn2)c(-c2cncc(F)c2)c1Br", "note": "[Example I-187]", "values": [
      {"measurement": "Post-emergence action against TRZAS in %", "setting": "[1]; 80 g/ha", "result": 20, "unit": "%"}
    ]},
    {"smiles": "O=C(O)COc1nn(-c2ncccc2F)c(-c2ccc(F)nc2)c1Br", "note": "[Example I-17]", "values": [
      {"measurement": "Pre-emergence action against GLXMA", "setting": "Glycine max (GLXMA)", "result": 10, "unit": "%"},
      {"measurement": "Pre-emergence action against TRZAS", "setting": "[2]", "result": 10, "unit": "%"},
      {"measurement": "Post-emergence action against TRZAS in %", "setting": "[1]; 20 g/ha", "result": 10, "unit": "%"},
      {"measurement": "Post-emergence action against ZEAMX in % (crop plant compatibility)", "setting": "Zea mays (ZEAMX)", "result": 10, "unit": "%"}
    ]},
    {"smiles": "COC(=O)COc1nn(-c2ncccc2F)c(-c2cncc(F)c2)c1Br", "note": "[Example I-16]", "values": [
      {"measurement": "Pre-emergence action against BRSNW in %", "setting": "Brassica napus (BRSNW)", "result": 10, "unit": "%"},
      {"measurement": "Pre-emergence action against TRZAS", "setting": "[2]", "result": 10, "unit": "%"},
      {"measurement": "Pre-emergence action against TRZAS in %", "setting": "[2]; pre-emergence, 80 g/ha, in comparison to untreated controls", "result": 20, "unit": "%"},
      {"measurement": "Post-emergence action against TRZAS in %", "setting": "[1]; 20 g/ha", "result": 20, "unit": "%"},
      {"measurement": "Post-emergence action against ZEAMX in % (crop plant compatibility)", "setting": "Zea mays (ZEAMX)", "result": 10, "unit": "%"},
      {"measurement": "Post-emergence action against ZEAMX in %", "setting": "Zea mays (ZEAMX)", "result": 20, "unit": "%"}
    ]},
    {"smiles": "COC(=O)COc1nn(-c2ncccc2F)c(-c2ccc(F)nc2)c1Br", "note": "[Example I-07]", "values": [
      {"measurement": "Post-emergence action against ZEAMX in %", "setting": "Zea mays (ZEAMX)", "result": 0, "unit": "%"}
    ]}
  ]
}
